{"source": "patent US11547705B2", "about": "“Combination of a PD-1 antagonist and a VEGF-R/FGFR/RET tyrosine kinase inhibitor for treating cancer” (MERCK SHARP & DOHME LLC, priority 2015, dated 2023)", "key": {"[1]": {"tested_on": "mouse lung cancer cell line LL/2 (LLc1)", "assay": "Anti-tumor effect in subcutaneous LL/2 (LLc1) transplantation model", "assay_type": "in vivo", "details": "C57BL/6J mice, lenvatinib oral once daily, anti-PD-1 antibody 500 μg/head i.p. every 3 days", "method": "A DMEM culture medium (high-glucose type) containing 10% fetal bovine serum (FBS) and penicillin/streptomycin was used to culture a mouse lung cancer cell line LL/2 (LLc1) (ATCC number: CRL-1642). Next, phosphate buffered saline (PBS) was used to prepare a cell suspension having a concentration of 2.0×10^7 cells/mL. The cell suspension was subcutaneously transplanted at a dose of 0.1 mL on the right lateral side of the body of each of 7-week-old mice (C57BL/6J, female, Charles River Laboratories Japan Inc.). Eight (8) days after the transplantation, an electronic digital caliper (Digimatic™ Caliper; Mitutoyo Corporation) was used to measure the short and long diameters of a tumor of interest. The following equation was used to calculate the tumor volume TV. Tumor Volume TV (mm^3)=Long Diameter (mm)×Short Diameter (mm)×Short Diameter (mm)/2.\n(§1) Based on the tumor volumes on the first day of administration, grouping was carried out such that the average values of the tumor volumes were almost the same. A 1 mg/ml solution of lenvatinib was prepared using water for injection (Otsuka Pharmaceutical Co., Ltd.) and was orally administered at a dose of 0.2 mL/20 g mouse body weight once daily for 14 days. 0.2 mL of an administration sample containing 2.5 mg/mL of an anti-mouse-PD-1 antibody (Clone: RMP1-14, BioXCell, Catalog#: BE0146), which had been diluted with PBS, was intraperitoneally administered (at a dosage of 500 μg/head) once every 3 days a total of 5 times (day 1, day 4, day 7, day 10, and day 13, with the day of the grouping set to day 1). To the control group, Otsuka water for injection was orally administered at a dose of 0.2 mL/20 g mouse body weight once daily for 14 days. Each group including 5 mice was used to conduct the experiment. The day (day 15) after the final administration, the respective tumor volumes (TV) were determined for the control group, the lenvatinib administration group, the anti-mouse-PD-1 antibody administration group, and the combination administration group. The values obtained by logarithmically transforming the tumor volumes were used to carry out statistical analysis."}, "[2]": {"tested_on": "mouse colon carcinoma cell line CT26.WT", "assay": "Anti-tumor effect in subcutaneous CT26.WT transplantation model, lenvatinib mesilate and anti-PD-L1 antibody", "assay_type": "in vivo", "details": "BALB/c mice, lenvatinib mesilate oral once daily, anti-PD-L1 antibody 500 μg/head i.p. every 3 days", "method": "A RPMI1640 culture medium containing 10% FBS and penicillin/streptomycin was used to culture a mouse colon carcinoma cell line CT26.WT (ATCC number: CRL-2638). Hank's Balanced Salt Solution (HBSS) was used to prepare a cell suspension having a concentration of 3.0×10^7 cells/mL. The cell suspension was subcutaneously transplanted at a dose of 0.1 mL on the right lateral side of the body of each of 7-week-old mice (BALB/cAnNCrlCrlj, female, Charles River Laboratories Japan Inc.). 8 days after the transplantation, an electronic digital caliper (Digimatic™ Caliper; Mitutoyo Corporation) was used to measure the short and long diameters of a tumor of interest. The following equation was used to calculate the tumor volume TV. Tumor Volume TV (mm^3)=Long Diameter (mm)×Short Diameter (mm)×Short Diameter (mm)/2.\nas §1, with “of lenvatinib mesilate was prepared” for “of lenvatinib was prepared”, “of an anti-mouse-PD-L1 antibody, which had” for “of an anti-mouse-PD-1 antibody (Clone: RMP1-14, BioXCell, Catalog#: BE0146), which had”, “tumor volumes TV were determined” for “tumor volumes (TV) were determined”, “group, the anti-mouse-PD-L1 antibody administration” for “group, the anti-mouse-PD-1 antibody administration”"}, "VEGFR2": {"target": "VEGFR2 (Homo sapiens, UniProt P35968)", "sequence (P35968 20-1356, species assumed)": "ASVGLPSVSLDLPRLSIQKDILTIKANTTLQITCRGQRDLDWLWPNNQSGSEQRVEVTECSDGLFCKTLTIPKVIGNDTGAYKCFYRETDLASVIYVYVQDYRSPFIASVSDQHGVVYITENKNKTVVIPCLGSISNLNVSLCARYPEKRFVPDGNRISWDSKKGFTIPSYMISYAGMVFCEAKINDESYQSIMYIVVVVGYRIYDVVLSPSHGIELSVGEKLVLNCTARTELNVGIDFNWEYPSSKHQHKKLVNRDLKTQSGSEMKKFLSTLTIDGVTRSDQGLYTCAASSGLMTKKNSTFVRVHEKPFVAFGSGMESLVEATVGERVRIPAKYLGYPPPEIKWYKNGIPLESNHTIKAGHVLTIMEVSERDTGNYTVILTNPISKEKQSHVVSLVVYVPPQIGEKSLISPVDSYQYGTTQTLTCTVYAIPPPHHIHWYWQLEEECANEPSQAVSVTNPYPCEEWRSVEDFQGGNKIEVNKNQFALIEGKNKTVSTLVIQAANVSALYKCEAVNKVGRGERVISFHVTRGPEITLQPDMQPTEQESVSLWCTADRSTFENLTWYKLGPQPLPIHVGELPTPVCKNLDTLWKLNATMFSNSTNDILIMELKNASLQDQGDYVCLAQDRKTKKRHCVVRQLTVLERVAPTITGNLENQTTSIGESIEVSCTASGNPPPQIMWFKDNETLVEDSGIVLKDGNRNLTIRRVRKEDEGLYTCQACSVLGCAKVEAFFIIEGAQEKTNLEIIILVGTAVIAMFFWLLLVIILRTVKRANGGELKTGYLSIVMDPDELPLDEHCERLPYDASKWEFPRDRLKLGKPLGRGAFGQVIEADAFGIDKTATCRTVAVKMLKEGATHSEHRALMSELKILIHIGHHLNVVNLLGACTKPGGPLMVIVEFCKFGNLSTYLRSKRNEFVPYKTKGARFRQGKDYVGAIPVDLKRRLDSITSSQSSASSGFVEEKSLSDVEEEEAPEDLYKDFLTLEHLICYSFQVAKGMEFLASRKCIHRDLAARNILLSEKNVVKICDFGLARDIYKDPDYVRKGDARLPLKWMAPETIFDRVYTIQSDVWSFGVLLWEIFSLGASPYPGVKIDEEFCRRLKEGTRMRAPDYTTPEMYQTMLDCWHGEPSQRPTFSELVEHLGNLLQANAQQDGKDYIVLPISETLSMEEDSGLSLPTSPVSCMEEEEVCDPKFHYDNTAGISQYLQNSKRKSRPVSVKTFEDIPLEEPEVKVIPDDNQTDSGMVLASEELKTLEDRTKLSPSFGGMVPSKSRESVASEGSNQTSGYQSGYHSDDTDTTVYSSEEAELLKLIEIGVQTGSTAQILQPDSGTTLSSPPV", "details": "according to kinetic analysis; background statement; cited from earlier work"}, "[3]": {"details": "Day 1 (day of grouping, first day of administration)"}}, "data": [{"smiles": "COc1cc2nccc(Oc3ccc(NC(=O)NC4CC4)c(Cl)c3)c2cc1C(N)=O", "note": "[Lenvatinib, 4-[3-chloro-4-(cyclopropylaminocarbonyl)aminophenoxy]-7-methoxy-6-quinolinecarboxamide]", "values": [{"measurement": "Tumor Volume TV", "setting": "[1]; [3]", "value": 100, "unit": "mm^3"}, {"measurement": "Tumor Volume TV", "setting": "[1]; Day 4", "value": 243, "unit": "mm^3"}, {"measurement": "Tumor Volume TV", "setting": "[1]; Day 8", "value": 394, "unit": "mm^3"}, {"measurement": "Tumor Volume TV", "setting": "[1]; Day 10", "value": 553, "unit": "mm^3"}, {"measurement": "Tumor Volume TV", "setting": "[1]; Day 13", "value": 837, "unit": "mm^3"}, {"measurement": "Tumor Volume TV", "setting": "[1]; Day 15 (day after final administration)", "value": 1143, "unit": "mm^3"}, {"measurement": "Tumor Volume TV", "setting": "[2]; [3]", "value": 154, "unit": "mm^3"}, {"measurement": "Tumor Volume TV", "setting": "[2]; Day 4", "value": 472, "unit": "mm^3"}, {"measurement": "Tumor Volume TV", "setting": "[2]; Day 8", "value": 1172, "unit": "mm^3"}, {"measurement": "Tumor Volume TV", "setting": "[2]; Day 11", "value": 1555, "unit": "mm^3"}, {"measurement": "inhibition of kinase activity", "setting": "VEGFR2", "value": "rapid and potent inhibition of kinase activity"}]}]}
